Laboratory results published in US20240116897A1, “BENZOTHIAZOLE AND BENZIMIDAZOLE DERIVATIVES, PHARMACEUTICALLY ACCEPTABLE SALT THEREOF, PREPARATION METHOD THEREFOR, AND PHARMACEUTICAL COMPOSITION COMPRISING SAME AS ACTIVE INGREDIENT” (KOREA RESEARCH INSTITUTE OF CHEMICAL TECHNOLOGY, priority 2021, published 2024).

Biological target: T1, SIRT7 protein (Homo sapiens, UniProt Q9NRC8)
T1 construct: purchased SignalChem S41-30H
T1 sequence (Q9NRC8 1-400): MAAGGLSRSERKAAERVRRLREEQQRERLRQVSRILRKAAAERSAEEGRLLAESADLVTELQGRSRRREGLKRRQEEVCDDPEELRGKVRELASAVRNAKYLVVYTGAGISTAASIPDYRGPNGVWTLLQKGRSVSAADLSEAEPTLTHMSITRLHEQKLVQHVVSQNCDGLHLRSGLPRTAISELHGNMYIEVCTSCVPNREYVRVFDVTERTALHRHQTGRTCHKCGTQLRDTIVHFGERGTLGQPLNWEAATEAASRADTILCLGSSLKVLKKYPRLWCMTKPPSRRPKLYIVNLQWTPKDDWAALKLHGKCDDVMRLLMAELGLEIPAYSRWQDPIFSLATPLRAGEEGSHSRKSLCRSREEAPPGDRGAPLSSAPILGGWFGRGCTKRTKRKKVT
Assay: SIRT Glo assay, inhibitory activity against Sirt7
Type: biochemical
Conditions: 10 μM compound
Procedure: Promega's Cat. No. 6450 SIRT Glo assay kit was used, and as the target SIRT7 protein, No. S41-30H protein of SignalChem's Cat. was used. Prepare the compound by diluting it in SIRT Glo buffer in advance to a concentration twice as thick as the final concentration. For the positive control group of white 384 well plate (Greiner Bioone, white, small volume, Cat. No. 874075), and for compound group, dilute sirt7 protein in SIRT Glo buffer and dispense by 5 μL to contain 20 ng per well. In the background control group, 10 μL of SIRT Glo buffer is dispensed.
After adding 5 μL of SIRT Glo buffer to the positive control group, and 5 μL of the diluted compound to the compound group, react for 30 minutes. After making the substrate provided in the SIRT Glo assay, adding 10 μL each, and reacting for 1 hour, the luciferase activity is measured with a microplate reader (Molecular Device, spectramax i3).
Subtract the luciferase level of the background control group in all wells. The % inhibition of the compound was used to obtain the compound's rate of inhibitory activity against sirt7 in the following:
% inhibition=100−(compound group/positive control group)×100.

| inhibition at 10 µM [%] | SMILES |
| --- | --- |
| 29 | O=C(Nc1nc2ccccc2s1)c1ccc(CN2CCN(S(=O)(=O)C3CC3)CC2)cc1 [Compound 1-34, N-(benzo[d]thiazol-2-yl)-4-((4-(cyclopropylsulfonyl)piperazin-1-yl)methyl)benzamide] |
| 100 | CCNC(=O)N1CCC(=Cc2ccc(C(=O)Nc3nc4ccccc4s3)cc2Cl)CC1 [Compound 1-97, 4-(4-(benzo[d]thiazol-2-ylcarbamoyl)-2-chlorobenzylidene)-N-ethylpiperidine-1-carboxamide] |
| 97 | O=C(Nc1nc2ccccc2s1)c1ccc(CN2CCN(C(=O)NC3CCCCC3)CC2)cc1 [Compound 1-53, 4-(4-(benzo[d]thiazol-2-ylcarbamoyl)benzyl)-N-cyclohexylpiperazine-1-carboxamide] |
| 65 | Cc1ccc(Oc2cccc(C(=O)Nc3nc4ccccc4[nH]3)c2)nn1 [Compound 1-5, N-(1H-benzo[d]imidazol-2-yl)-3-((6-methylpyridazin-3-yl)oxy)benzamide] |
| 90 | Cc1ccc(NC(=O)N2CCN(Cc3ccc(C(=O)Nc4nc5ccccc5s4)cc3)CC2)cc1 [Compound 1-51, 4-(4-(benzo[d]thiazol-2-ylcarbamoyl)benzyl)-N-(p-tolyl)piperazine-1-carboxamide] |
| 5 | O=C(Nc1nc2ccccc2s1)c1ccc(C=C2CCNCC2)cc1 [Compound 1-65, N-(benzo[d]thiazol-2-yl)-4-(piperidin-4-ylidenemethyl)benzamide] |
| 37 | O=C(Nc1nc2ccccc2s1)c1c(F)cc(C=C2CCN(C(=O)Nc3ccc(C(F)(F)F)cc3)CC2)cc1F [Compound 1-102, 4-(4-(benzo[d]thiazol-2-ylcarbamoyl)-3,5-difluorobenzylidene)-N-(4-(trifluoromethyl)phenyl)piperidine-1-carboxamide] |
| 88 | Cc1ccc(Oc2cccc(C(=O)Nc3nc4ccccc4s3)c2)nn1 [Compound 1-17, N-(benzo[d]thiazol-2-yl)-3-((6-methylpyridazin-3-yl)oxy)benzamide] |
| 15 | O=C(Nc1nc2ccccc2n1Cc1ccc(C(F)(F)F)cc1)c1ccc(OCc2ccc(C(F)(F)F)cc2)cc1 [Compound 1-14, N-(1-(4-(trifluoromethyl)benzyl)-1H-benzo[d]imidazol-2-yl)-4-((4-(trifluoromethyl)benzyl)oxy)benzamide] |
| 78 | c1ccc2sc(N3CCC4(CC3)OCCO4)nc2c1 [Compound 1-23, 8-(benzo[d]thiazol-2-yl)-1,4-dioxa-8-azaspiro[4.5]decane] |
| 23 | O=C(Nc1nc2ccccc2s1)c1ccc(CN2C[C@@H]3C[C@H]2CN3)cc1 [Compound 1-71, 4-(((1S,4S)-2,5-diazabicyclo[2.2.1]heptan-2-yl)methyl)-N-(benzo[d]thiazol-2-yl)benzamide] |
| 89 | COc1ccc(NC(=O)N2CCN(Cc3ccc(C(=O)Nc4nc5ccccc5s4)cc3)CC2)cc1 [Compound 1-42, 4-(4-(benzo[d]thiazol-2-ylcarbamoyl)benzyl)-N-(4-methoxyphenyl)piperazine-1-carboxamide] |
| 98 | CC(C)NC(=O)N1CCC(=Cc2ccc(C(=O)Nc3nc4ccccc4s3)c(F)c2)CC1 [Compound 1-94, 4-(4-(benzo[d]thiazol-2-ylcarbamoyl)-3-fluorobenzylidene)-N-isopropylpiperidine-1-carboxamide] |
| 62 | CC(C)(C)OC(=O)N1CCC2(CCN(Cc3ccc(C(=O)Nc4nc5ccccc5s4)cc3)CC2)CC1 [Compound 1-28, tert-butyl 9-(4-(benzo[d]thiazol-2-ylcarbamoyl)benzyl)-3,9-diazaspiro[5.5]undecane-3-carboxylate] |
| 70 | O=C(Nc1nc2ccccc2s1)c1ccc(C=C2CCN(C(=O)Nc3ccc(C(F)(F)F)cc3)CC2)cc1F [Compound 1-93, 4-(4-(benzo[d]thiazol-2-ylcarbamoyl)-3-fluorobenzylidene)-N-(4-(trifluoromethyl)phenyl)piperidine-1-carboxamide] |
| 5 | Cc1ccc(Oc2ccc(C(=O)Nc3nc4cc(F)c(F)cc4[nH]3)cc2)nn1 [Compound 1-7, N-(5,6-difluoro-1H-benzo[d]imidazol-2-yl)-4-((6-methylpyridazin-3-yl)oxy)benzamide] |
| 21 | CC(C)(C)OC(=O)N1CCC(=Cc2cc(F)c(C(=O)Nc3nc4ccccc4s3)c(F)c2)CC1 [Compound 1-98, tert-butyl 4-(4-(benzo[d]thiazol-2-ylcarbamoyl)-3,5-difluorobenzylidene)piperidine-1-carboxylate] |
| 54 | CCCCOC(=O)CNC(=O)N1CCN(Cc2ccc(C(=O)Nc3nc4ccccc4s3)cc2)CC1 [Compound 1-48, butyl-(4-(4-(benzo[d]thiazol-2-ylcarbamoyl)benzyl)piperazine-1-carbonyl)glycinate] |
| 92 | CCNC(=O)N1CCC(=Cc2ccc(C(=O)Nc3nc4ccccc4s3)cc2)CC1 [Compound 1-67, 4-(4-(benzo[d]thiazol-2-ylcarbamoyl)benzylidene)-N-ethylpiperidine-1-carboxamide] |
| 56 | O=C(Nc1nc2ccccc2[nH]1)c1ccc(Oc2ncc(F)cn2)cc1 [Compound 1-10, N-(1H-benzo[d]imidazol-2-yl)-4-((5-fluoropyrimidin-2-yl)oxy)benzamide] |
| 63 | O=C(Nc1nc2ccccc2s1)c1c(F)cc(C=C2CCNCC2)cc1F [Compound 1-99, N-(benzo[d]thiazol-2-yl)-2,6-difluoro-4-(piperidin-4-ylidenemethyl)benzamide] |
| 42 | O=C(Nc1nc2ccccc2s1)c1ccc(CC2CCNCC2)cc1C(F)(F)F [Compound 1-83, N-(benzo[d]thiazol-2-yl)-4-(piperidin-4-ylmethyl)-2-(trifluoromethyl)benzamide] |
| 20 | O=C(Nc1nc2ccccc2s1)c1ccc(CN2CCN(S(=O)(=O)c3ccccc3)CC2)cc1 [Compound 1-35, N-(benzo[d]thiazol-2-yl)-4-((4-(phenylulfonyl)piperazin-1-yl)methyl)benzamide] |
| 8 | Cn1c(NC(=O)c2ccc(CN3CCN(C(=O)OC(C)(C)C)CC3)cc2)nc2ccccc21 [Compound 1-2, Tert-Butyl 4-(4-((1-methyl-1H-benzo[d]imidazol-2-yl)carbamoyl)benzyl)piperazine-1-carboxylate] |
| 100 | CCCNC(=O)N1CCN(Cc2ccc(C(=O)Nc3nc4ccccc4s3)cc2)CC1 [Compound 1-55, 4-(4-(benzo[d]thiazol-2-ylcarbamoyl)benzyl)-N-propylpiperazine-1-carboxamide] |
| 61 | CCc1ccccc1NC(=O)N1CCN(Cc2ccc(C(=O)Nc3nc4ccccc4s3)cc2)CC1 [Compound 1-50, 4-(4-(benzo[d]thiazol-2-ylcarbamoyl)benzyl)-N-(2-ethylphenyl)piperazine-1-carboxamide] |
| 12 | CC(C)(C)CC(C)(C)NC(=O)N1CCN(Cc2ccc(C(=O)Nc3nc4ccccc4s3)cc2)CC1 [Compound 1-57, 4-(4-(benzo[d]thiazol-2-ylcarbamoyl)benzyl)-N-(2,4,4-trimethylpentan-2-yl)piperazine-1-carboxamide] |

| SMILES | inhibition at 10 µM [%] |
| --- | --- |
| O=C(Nc1nc2ccccc2s1)c1ccc(C2=CCNCC2)cc1 [Compound 1-75, N-(benzo[d]thiazol-2-yl)-4-(1,2,3,6-tetrahydropyridin-4-yl)benzamide] | 26 |
